In ChEMBL document CHEMBL5113392, “Novel hybrid pyrrolidinedione-thiazolidinones as potential anticancer agents: Synthesis and biological evaluation” (Eur J Med Chem, 2022):

Assays:
IGROV-1 [1] = assay: Anticancer activity against human IGROV-1 cells assessed as growth inhibition incubated for 48 hrs by SRB assay; assay type: functional
HCT-116 = assay: Anticancer activity against human HCT-116 cells assessed as growth inhibition incubated for 48 hrs by SRB assay; assay type: functional
HT-29 [2] = assay: Anticancer activity against human HT-29 cells assessed as total growth inhibition incubated for 48 hrs by SRB assay; assay type: functional
HeLa = assay: Anticancer activity against human HeLa cells assessed as cell growth inhibition incubated for 72 hrs by MTT assay; assay type: functional
MDA-MB-468 = assay: Anticancer activity against human MDA-MB-468 cells assessed as total growth inhibition incubated for 48 hrs by SRB assay; assay type: functional
NCI-H226 = assay: Anticancer activity against human NCI-H226 cells assessed as total growth inhibition incubated for 48 hrs by SRB assay; assay type: functional
T47D [3] = assay: Anticancer activity against human T47D cells assessed as total growth inhibition incubated for 48 hrs by SRB assay; assay type: functional
HCT-15 [4] = assay: Anticancer activity against human HCT-15 cells assessed as lethality incubated for 48 hrs by SRB assay; assay type: functional; details: read-out: LC50 (the source's name)
NCI-H522 = assay: Anticancer activity against human NCI-H522 cells assessed as lethality incubated for 48 hrs by SRB assay; assay type: functional; details: read-out: LC50 (the source's name)
MDA-MB-435 [5] = assay: Anticancer activity against human MDA-MB-435 cells assessed as total growth inhibition incubated for 48 hrs by SRB assay; assay type: functional
COLO 205 [6] = assay: Anticancer activity against human COLO 205 cells assessed as lethality incubated for 48 hrs by SRB assay; assay type: functional; details: read-out: LC50 (the source's name)
OVCAR-5 [7] = assay: Anticancer activity against human OVCAR-5 cells assessed as total growth inhibition incubated for 48 hrs by SRB assay; assay type: functional
SF-295 [8] = assay: Anticancer activity against human SF-295 cells assessed as total growth inhibition incubated for 48 hrs by SRB assay; assay type: functional
[9] = Selectivity index, ratio of GI50 for human HaCaT cells to GI50 for human A549 cells; assay type: toxicity; details: HaCaT cells versus A549 cells, read-out: RatioGI50
NCI-H322M = assay: Anticancer activity against human NCI-H322M cells assessed as total growth inhibition incubated for 48 hrs by SRB assay; assay type: functional
MCF7 [10] = assay: Anticancer activity against human MCF7 cells assessed as growth inhibition incubated for 48 hrs by SRB assay; assay type: functional
NCI-H460 [11] = assay: Anticancer activity against human NCI-H460 cells assessed as lethality incubated for 48 hrs by SRB assay; assay type: functional; details: read-out: LC50 (the source's name)
RXF 393 [12] = assay: Anticancer activity against human RXF 393 cells assessed as lethality incubated for 48 hrs by SRB assay; assay type: functional; details: read-out: LC50 (the source's name)
K562 [13] = assay: Anticancer activity against human K562 cells assessed as lethality incubated for 48 hrs by SRB assay; assay type: functional; details: read-out: LC50 (the source's name)
SNB-19 = assay: Anticancer activity against human SNB-19 cells assessed as growth inhibition incubated for 48 hrs by SRB assay; assay type: functional
HT-29 [14] = assay: Anticancer activity against human HT-29 cells assessed as lethality incubated for 48 hrs by SRB assay; assay type: functional; details: read-out: LC50 (the source's name)
HCT-15 [15] = assay: Anticancer activity against human HCT-15 cells assessed as growth inhibition incubated for 48 hrs by SRB assay; assay type: functional
PC-3 [16] = assay: Anticancer activity against human PC-3 cells assessed as lethality incubated for 48 hrs by SRB assay; assay type: functional; details: read-out: LC50 (the source's name)
[17] = Selectivity index, ratio of GI50 for human HaCaT cells to GI50 for human SK-OV-3 cells; assay type: toxicity; details: HaCaT cells versus SK-OV-3 cells, read-out: RatioGI50
COLO 205 [18] = assay: Anticancer activity against human COLO 205 cells assessed as growth inhibition incubated for 48 hrs by SRB assay; assay type: functional
T47D [19] = assay: Anticancer activity against human T47D cells assessed as growth inhibition incubated for 48 hrs by SRB assay; assay type: functional
IGROV-1 [20] = assay: Anticancer activity against human IGROV-1 cells assessed as lethality incubated for 48 hrs by SRB assay; assay type: functional; details: read-out: LC50 (the source's name)
Hs-578T = assay: Anticancer activity against human Hs-578T cells assessed as total growth inhibition incubated for 48 hrs by SRB assay; assay type: functional
HL-60 = assay: Anticancer activity against human HL-60 cells assessed as total growth inhibition incubated for 48 hrs by SRB assay; assay type: functional
M14 = assay: Anticancer activity against human M14 cells assessed as total growth inhibition incubated for 48 hrs by SRB assay; assay type: functional
SF-295 [21] = assay: Anticancer activity against human SF-295 cells assessed as lethality incubated for 48 hrs by SRB assay; assay type: functional; details: read-out: LC50 (the source's name)
SK-MEL-28 = assay: Anticancer activity against human SK-MEL-28 cells assessed as growth inhibition incubated for 48 hrs by SRB assay; assay type: functional
CCRF-CEM = assay: Anticancer activity against human CCRF-CEM cells assessed as growth inhibition incubated for 48 hrs by SRB assay; assay type: functional
MCF7 [22] = assay: Anticancer activity against human MCF7 cells assessed as lethality incubated for 48 hrs by SRB assay; assay type: functional; details: read-out: LC50 (the source's name)
SR = assay: Anticancer activity against human SR cells assessed as lethality incubated for 48 hrs by SRB assay; assay type: functional; details: read-out: LC50 (the source's name)
RXF 393 [23] = assay: Anticancer activity against human RXF 393 cells assessed as total growth inhibition incubated for 48 hrs by SRB assay; assay type: functional
SK-MEL-2 = assay: Anticancer activity against human SK-MEL-2 cells assessed as lethality incubated for 48 hrs by SRB assay; assay type: functional; details: read-out: LC50 (the source's name)
MCF7 [24] = assay: Anticancer activity against human MCF7 cells assessed as cell growth inhibition incubated for 72 hrs by MTT assay; assay type: functional
PC-3 [25] = assay: Anticancer activity against human PC-3 cells assessed as growth inhibition incubated for 48 hrs by SRB assay; assay type: functional
OVCAR-5 [26] = assay: Anticancer activity against human OVCAR-5 cells assessed as growth inhibition incubated for 48 hrs by SRB assay; assay type: functional
HT-29 [27] = assay: Anticancer activity against human HT-29 cells assessed as growth inhibition incubated for 48 hrs by SRB assay; assay type: functional
MDA-MB-231 [28] = assay: Anticancer activity against human MDA-MB-231 cells assessed as lethality incubated for 48 hrs by SRB assay; assay type: functional; details: read-out: LC50 (the source's name)
K562 [29] = assay: Anticancer activity against human K562 cells assessed as growth inhibition incubated for 48 hrs by SRB assay; assay type: functional
HCC 2998 = assay: Anticancer activity against human HCC 2998 cells assessed as inhibition of cell growth at 10 uM incubated for 48 hrs by SRB assay; assay type: functional; details: HCC 2998, 48 h, values are per cent of control
SF-295 [30] = assay: Anticancer activity against human SF-295 cells assessed as growth inhibition incubated for 48 hrs by SRB assay; assay type: functional
NCI-H460 [31] = assay: Anticancer activity against human NCI-H460 cells assessed as total growth inhibition incubated for 48 hrs by SRB assay; assay type: functional
U-251 = assay: Anticancer activity against human U-251 cells assessed as growth inhibition incubated for 48 hrs by SRB assay; assay type: functional
[32] = Selectivity index, ratio of GI50 for human HaCaT cells to GI50 for human U-251 cells; assay type: toxicity; details: HaCaT cells versus U-251 cells, read-out: RatioGI50
MDA-MB-231 [33] = assay: Anticancer activity against human MDA-MB-231 cells assessed as cell growth inhibition incubated for 72 hrs by MTT assay; assay type: functional
MDA-MB-435 [34] = assay: Anticancer activity against human MDA-MB-435 cells assessed as lethality incubated for 48 hrs by SRB assay; assay type: functional; details: read-out: LC50 (the source's name)

## O=C1CC(N2C(=O)/C(=C/C(Cl)=C/c3ccc([N+](=O)[O-])cc3)SC2=S)C(=O)N1c1ccc(Cl)cc1 (stereo not given)
IGROV-1 [1]
  GI50: 1.03 µM
HCT-116
  GI50: 1.35 µM
HT-29 [2]
  TGI: 4.6 µM
HeLa
  GI50: 6.65 µM
MDA-MB-468
  TGI: 3.1 µM
NCI-H226
  TGI: 4.65 µM
T47D [3]
  TGI: 6.34 µM
HCT-15 [4]
  CC50: 77.4 µM
NCI-H522
  CC50: 14.1 µM
MDA-MB-435 [5]
  TGI: 3.39 µM
COLO 205 [6]
  CC50: > 100 µM
OVCAR-5 [7]
  TGI: 4.46 µM
SF-295 [8]
  TGI: 3.24 µM
[9]
  selectivity ratio: 1.56
NCI-H322M
  TGI: > 100 µM
MCF7 [10]
  GI50: 1.38 µM
NCI-H460 [11]
  CC50: > 100 µM
RXF 393 [12]
  CC50: 5.86 µM
K562 [13]
  CC50: 54.9 µM
SNB-19
  GI50: 1.17 µM
HT-29 [14]
  CC50: > 100 µM
HCT-15 [15]
  GI50: 0.599 µM
PC-3 [16]
  CC50: > 100 µM
[17]
  selectivity ratio: 1.52
COLO 205 [18]
  GI50: 1.4 µM
T47D [19]
  GI50: 2.03 µM
IGROV-1 [20]
  CC50: 49.6 µM
Hs-578T
  TGI: > 100 µM
HL-60
  TGI: 8.86 µM
M14
  TGI: 5.06 µM
SF-295 [21]
  CC50: 7.51 µM
SK-MEL-28
  GI50: 1.71 µM
CCRF-CEM
  GI50: 0.486 µM
MCF7 [22]
  CC50: > 100 µM
SR
  CC50: 57.6 µM
RXF 393 [23]
  TGI: 2.72 µM
SK-MEL-2
  CC50: > 100 µM
MCF7 [24]
  GI50: 7.95 µM
PC-3 [25]
  GI50: 1.34 µM
OVCAR-5 [26]
  GI50: 2.04 µM
HT-29 [27]
  GI50: 0.632 µM
MDA-MB-231 [28]
  CC50: > 100 µM
K562 [29]
  GI50: 0.692 µM
HCC 2998
  growth, % of control at 10 µM: -22.9%
SF-295 [30]
  GI50: 1.4 µM
NCI-H460 [31]
  TGI: > 100 µM
U-251
  GI50: 0.477 µM
[32]
  selectivity ratio: 11.2
MDA-MB-231 [33]
  GI50: 6.45 µM
MDA-MB-435 [34]
  CC50: 6.98 µM

## O=C1CC(N2C(=O)/C(=C/C(Cl)=C/c3ccc([N+](=O)[O-])cc3)SC2=S)C(=O)N1c1ccc(O)cc1 (stereo not given)
IGROV-1 [1]
  GI50: 1.2 µM
HCT-116
  GI50: 0.751 µM
HT-29 [2]
  TGI: 8.78 µM
HeLa
  GI50: 6.13 µM
MDA-MB-468
  TGI: 5.7 µM
NCI-H226
  TGI: 6.82 µM
T47D [3]
  TGI: 15.8 µM
HCT-15 [4]
  CC50: 6.09 µM
NCI-H522
  CC50: 9.65 µM
MDA-MB-435 [5]
  TGI: 4.34 µM
COLO 205 [6]
  CC50: 56 µM
OVCAR-5 [7]
  TGI: 3.7 µM
SF-295 [8]
  TGI: 2.7 µM
[9]
  selectivity ratio: 10.2
NCI-H322M
  TGI: 6.67 µM
MCF7 [10]
  GI50: 1.21 µM
NCI-H460 [11]
  CC50: 39.5 µM
RXF 393 [12]
  CC50: 6.76 µM
K562 [13]
  CC50: > 100 µM
SNB-19
  GI50: 1.34 µM
HT-29 [14]
  CC50: > 100 µM
HCT-15 [15]
  GI50: 0.472 µM
PC-3 [16]
  CC50: 8.6 µM
[17]
  selectivity ratio: 0.74
COLO 205 [18]
  GI50: 1.83 µM
T47D [19]
  GI50: 2.45 µM
IGROV-1 [20]
  CC50: 5.98 µM
Hs-578T
  TGI: 12.6 µM
HL-60
  TGI: 9.57 µM
M14
  TGI: 3.31 µM
SF-295 [21]
  CC50: 5.54 µM
SK-MEL-28
  GI50: 1.95 µM
CCRF-CEM
  GI50: 0.385 µM
MCF7 [22]
  CC50: > 100 µM
SR
  CC50: > 100 µM
RXF 393 [23]
  TGI: 3.22 µM
SK-MEL-2
  CC50: 54.3 µM
MCF7 [24]
  GI50: 4 µM
PC-3 [25]
  GI50: 0.906 µM
OVCAR-5 [26]
  GI50: 1.91 µM
HT-29 [27]
  GI50: 0.847 µM
MDA-MB-231 [28]
  CC50: 15.9 µM
K562 [29]
  GI50: 0.603 µM
HCC 2998
  growth, % of control at 10 µM: -81.6%
SF-295 [30]
  GI50: 1.31 µM
NCI-H460 [31]
  TGI: 6.75 µM
U-251
  GI50: 0.597 µM
[32]
  selectivity ratio: 66.9
MDA-MB-231 [33]
  GI50: 6.2 µM
MDA-MB-435 [34]
  CC50: 9.37 µM
